Test results: ChEMBL document CHEMBL5537196, “Discovery of KIN-3248, An Irreversible, Next Generation FGFR Inhibitor for the Treatment of Advanced Tumors Harboring FGFR2 and/or FGFR3 Gene Alterations” (J Med Chem, 2024)

Assays:
[1] = Antiproliferative activity against human ICC13-7 cells expressing FGFR2 V565F mutant assessed as inhibition of cell growth incubated for 10 days by Cell-titer glo assay; settings: ICC13-7, 240 h
RT-112 [2] = assay: Antiproliferative activity against human RT-112 cells assessed as inhibition of cell growth incubated for 5 days by Cell-titer glo assay; settings: RT-112, 120 h
CC-LP-1 [3] = assay: Antiproliferative activity against human CC-LP-1 cells expressing FGFR2 N550K mutant assessed as inhibition of cell growth incubated for 3 days by Cell-titer glo assay; settings: CC-LP-1, 72 h
[4] = Cmax in Beagle dog at 10 mg/kg,po administrated at 0.25 to 24 hrs by LC-MS/MS analysis; assay type: ADME, organism-based, Canis lupus familiaris; settings: in vivo, time 0.25-24 hrs
RT-112 [5] = assay: Antiproliferative activity against human RT-112 cells expressing FGFR3 N540K mutant assessed as inhibition of cell growth incubated for 5 days by Cell-titer glo assay; settings: RT-112, 120 h
[6] = AUC (0 to 24 hrs) in Beagle dog at 10 mg/kg,po administrated at 0.25 to 24 hrs by LC-MS/MS analysis; assay type: ADME, organism-based, Canis lupus familiaris; settings: in vivo, time 0.25-24 hrs
[7] = Total clearance in Beagle dog at 5 mg/kg,iv administrated at 0.25 to 24 hrs by LC-MS/MS analysis; assay type: ADME, organism-based, Canis lupus familiaris; settings: in vivo, time 0.25-24 hrs
[8] = Intrinsic clearance in human hepatocyte measured per 10^6 cells; assay type: ADME, cell-based; settings: hepatocytes, read-out: CLH
[9] = Cmax in Sprague-Dawley rat at 15 mg/kg,po administrated at 0.25 to 24 hrs by LC-MS/MS analysis; assay type: ADME, organism-based; settings: in vivo, time 0.25-24 hrs
[10] = Oral bioavailability in Sprague-Dawley rat at 15 mg/kg administrated at 0.25 to 24 hrs by LC-MS/MS analysis; assay type: ADME, organism-based; settings: in vivo, time 0.25-24 hrs
CC-LP-1 [11] = assay: Antiproliferative activity against human CC-LP-1 cells expressing FGFR2 V565F mutant assessed as inhibition of cell growth incubated for 3 days by Cell-titer glo assay; settings: CC-LP-1, 72 h
[12] = Half life in Sprague-Dawley rat at 5 mg/kg,iv administrated at 0.25 to 24 hrs by LC-MS/MS analysis; assay type: ADME, organism-based; settings: in vivo, time 0.25-24 hrs
[13] = Antiproliferative activity against human ICC13-7 cells expressing FGFR2 N550K mutant assessed as inhibition of cell growth incubated for 10 days by Cell-titer glo assay; settings: ICC13-7, 240 h
[14] = Half life in Beagle dog at 5 mg/kg,iv administrated at 0.25 to 24 hrs by LC-MS/MS analysis; assay type: ADME, organism-based, Canis lupus familiaris; settings: in vivo, time 0.25-24 hrs
[15] = Total clearance in Sprague-Dawley rat at 5 mg/kg,iv administrated at 0.25 to 24 hrs by LC-MS/MS analysis; assay type: ADME, organism-based; settings: in vivo, time 0.25-24 hrs
[16] = Antiproliferative activity against human ICC13-7 cells assessed as inhibition of cell growth incubated for 3 days by Cell-titer glo assay; settings: ICC13-7, 72 h
[17] = AUC (0 to 24 hrs) in Sprague-Dawley rat at 15 mg/kg,po administrated at 0.25 to 24 hrs by LC-MS/MS analysis; assay type: ADME, organism-based; settings: in vivo, time 0.25-24 hrs
[18] = Oral bioavailability in Beagle dog at 10 mg/kg administrated at 0.25 to 24 hrs by LC-MS/MS analysis; assay type: ADME, organism-based, Canis lupus familiaris; settings: in vivo, time 0.25-24 hrs
CC-LP-1 [19] = assay: Antiproliferative activity against human CC-LP-1 cells assessed as inhibition of cell growth incubated for 3 days by Cell-titer glo assay; settings: CC-LP-1, 72 h
SNU-16 = assay: Antiproliferative activity against human SNU-16 cells assessed as inhibition of cell growth incubated for 5 days by Cell-titer glo assay; settings: SNU-16, 120 h
RT-112 [20] = assay: Antiproliferative activity against human RT-112 cells expressing FGFR3 K650M mutant assessed as inhibition of cell growth incubated for 5 days by Cell-titer glo assay; settings: RT-112, 120 h
RT-112 [21] = assay: Antiproliferative activity against human RT-112 cells expressing FGFR3 assessed as inhibition of cell growth incubated for 5 days by Cell-titer glo assay; settings: RT-112, 120 h
[22] = Intrinsic clearance in human liver microsomes; assay type: ADME, Microsome; settings: read-out: CLH
RT-112 [23] = assay: Antiproliferative activity against human RT-112 cells expressing FGFR3 V555M mutant assessed as inhibition of cell growth incubated for 5 days by Cell-titer glo assay; settings: RT-112, 120 h
CC-LP-1 [24] = assay: Antiproliferative activity against human CC-LP-1 cells expressing FGFR2 N550H mutant assessed as inhibition of cell growth incubated for 3 days by Cell-titer glo assay; assay type: functional, cell-based; settings: CC-LP-1, 72 h

IC50 (SNU-16) | Structure (SMILES) | IC50 [1] | IC50 (RT-112 [2]) | IC50 (CC-LP-1 [3]) | IC50 (RT-112 [5]) | IC50 (CC-LP-1 [11]) | IC50 [13] | IC50 [16] | IC50 (CC-LP-1 [19]) | IC50 (RT-112 [20]) | IC50 (RT-112 [21]) | IC50 (RT-112 [23]) | also measured
6 nM | C=CC(=O)N1C[C@@H](n2nc(C#Cc3cc4ncn(C5CC5)c4cc3Cl)c(C(N)=O)c2NC)C[C@@H]1COC | 0.9 nM | 7.2 nM | 6.5 nM | 26.3 nM | 1.8 nM | 6.1 nM | 2.2 nM | 4.3 nM | 12.8 nM | 11.2 nM | 19.5 nM | Cmax [4]: 289 ng/mL; AUC(0-t) [6]: 498 ng·h/mL; clearance [7]: 44.4 mL/min/kg; hepatocyte CLint [8]: 14.4 µL/min/1e6 cells; Cmax [9]: 519 ng/mL; bioavailability [10]: 16.4%; half-life [12]: 6.17 h; half-life [14]: 4.94 h; clearance [15]: 26.8 mL/min/kg; AUC(0-t) [17]: 1500 ng·h/mL; bioavailability [18]: 13.1%; microsomal CLint [22]: 106 µL/min/mg
12.4 nM | CCN1CCN(c2ccc(Nc3cc(N(C)C(=O)Nc4c(Cl)c(OC)cc(OC)c4Cl)ncn3)cc2)CC1 [INFIGRATINIB] | > 1890 nM | 6.2 nM | 432 nM | 777 nM | > 2280 nM | 352 nM | 7.6 nM | 7.3 nM | 218 nM | 10 nM | 352 nM | IC50 (CC-LP-1 [24]): 28.8 nM
